Test results taken from patent publication US12521393B2, “Cytotoxicity targeting chimeras for CCR2-expressing cells” (GLAXOSMITHKLINE INTELLECTUAL PROPERTY DEVELOPMENT LIMITED, priority 2021, dated 2026).

Columns and labels:
[1] = target: anti-cotinine antibody (SEQ ID NO: 11/12, rabbit variable region with human IgG1 Fc DE mutation); assay: SPR binding of anti-cotinine antibody to ARM compounds, Biacore T200, 37° C. (Example 202); settings: SPR Biacore T200, 37° C., pH 7.4, antibody SEQ ID NO: 11/12 captured on protein A; Kd in molar
Method in brief: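 Run at 37 °C in 10 mM HEPES pH 7.4, 150 mM NaCl, 0.005% P20, 1% DMSO, with compounds titrated from 200 nM (five 3-fold steps) over protein A–captured antibody. A 1:1 kinetic model on double-referenced data gave rate constants, Kd as koff/kon and residence time 1/koff; results as pKd, run-averaged.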

[2] = tested on: endogenous target monocytes in human PBMC; assay: PBMC ex vivo monocyte depletion flow cytometry assay (Example 200); assay type: cell-based; settings: with anti-cotinine antibody (SEQ ID NO: 11/12), 18-24 hours, EC50 in molar, read-out: Ex Vivo Depletion Assay pEC50 (converted)
Method in brief: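 Monocyte depletion is reported as pEC50, averaged or given individually across runs, and read by flow cytometry staining CD45, CD14 and CD4 with a viability dye. Compounds, diluted four-fold over 11 points from 1 mM DMSO stocks, were combined with 30 μg/mL Fc-enhanced anti-cotinine antibody and human PBMC, then incubated 18-24 h at 37° C.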

SMILES	pKd of Antibody for ARM Compound of Formula (I) [1]	EC50 [2] [nM]
CN1C(=O)C[C@H](C(=O)NCCOCCNC(=O)[C@H]2C[C@H](NC(=O)CCOCCC(=O)N[C@@H]3C[C@H](NC(C)(C)C)CC[C@@H]3N3CC[C@H](Nc4ncnc5ccc(C(F)(F)F)cc45)C3=O)C2)[C@H]1c1cccnc1 [Example 188, (2S,3S)-N-(2-(2-((1R,3S)-3-(3-(3-(((1R,2S,5R)-5-(tert-butylamino)-2-((S)-2-oxo-3-((6-(trifluoromethyl)quinazolin-4-yl)amino)pyrrolidin-1-yl)cyclohexyl)amino)-3-oxopropoxy)propanamido)cyclobutane-1-carboxamido)ethoxy)ethyl)-1-methyl-5-oxo-2-(pyridin-3-yl)pyrrolidine-3-carboxamide]	8.975	0.316
CC(C)N(C)[C@@H]1CC[C@H](N2CC[C@H](Nc3ncnc4ccc(C(F)(F)F)cc34)C2=O)[C@H](NC(=O)CCCN2CCC3(CCN(CCCNC(=O)[C@H]4CC(=O)N(C)[C@@H]4c4cccnc4)CC3)CC2)C1 [Example 191, (2S,3S)-N-(3-(9-(4-(((1R,2S,5R)-5-(Isopropyl(methyl)amino)-2-((S)-2-oxo-3-((6-(trifluoromethyl)quinazolin-4-yl)amino)pyrrolidin-1-yl)cyclohexyl)amino)-4-oxobutyl)-3,9-diazaspiro[5.5]undecan-3-yl)propyl)-1-methyl-5-oxo-2-(pyridin-3-yl)pyrrolidine-3-carboxamide]	9.68	0.501
CC(C)N(C)[C@@H]1CC[C@H](N2CC[C@H](Nc3ncnc4ccc(C(F)(F)F)cc34)C2=O)[C@H](NC(=O)[C@H]2CC[C@H](C(=O)NCCCOCCCCOCCCNC(=O)[C@H]3CC(=O)N(C)[C@@H]3c3cccnc3)CC2)C1 [Example 194, (1r,4R)-N^1-((1R,2S,5R)-5-(Isopropyl(methyl)amino)-2-((S)-2-oxo-3-((6-(trifluoromethyl)quinazolin-4-yl)amino)pyrrolidin-1-yl)cyclohexyl)-N^4-(3-(4-(3-((2S,3S)-1-methyl-5-oxo-2-(pyridin-3-yl)pyrrolidine-3-carboxamido)propoxy)butoxy)propyl)cyclohexane-1,4-dicarboxamide]	9.5415	0.631
